Test results as given in PubChem BioAssay (NCI).
“And” between values parts separate entries of the source, which are not always exact repeats. Equal entries are not always repeated.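 48-hour exposure; five concentrations; linearly interpolated endpoints. GI50: concentration for 50% inhibition of growth. TGI: total growth inhibition.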

Experiments:
Experiment in all cases: growth of human tumour cells (NCI), 48 h
SF-539 CNS = tested on: SF-539 CNS
SK-MEL-28 melanoma = tested on: SK-MEL-28 melanoma
OVCAR-4 ovarian = tested on: OVCAR-4 ovarian
RPMI-8226 leukemia = tested on: RPMI-8226 leukemia
HOP-62 NSCLC = tested on: HOP-62 NSCLC
786-0 renal = tested on: 786-0 renal
MCF7 breast = tested on: MCF7 breast
CCRF-CEM leukemia = tested on: CCRF-CEM leukemia
HT29 colon = tested on: HT29 colon
SF-295 CNS = tested on: SF-295 CNS

| Compound | GI50 (SF-539 CNS) | TGI (SF-539 CNS) | GI50 (SK-MEL-28 melanoma) | TGI (SK-MEL-28 melanoma) [µM] | GI50 (OVCAR-4 ovarian) | TGI (OVCAR-4 ovarian) [µM] | GI50 (RPMI-8226 leukemia) | TGI (RPMI-8226 leukemia) [µM] | GI50 (HOP-62 NSCLC) | TGI (HOP-62 NSCLC) [µM] | GI50 (786-0 renal) | TGI (786-0 renal) | GI50 (MCF7 breast) | TGI (MCF7 breast) [µM] | GI50 (CCRF-CEM leukemia) | TGI (CCRF-CEM leukemia) [µM] | GI50 (HT29 colon) | TGI (HT29 colon) [µM] | GI50 (SF-295 CNS) | TGI (SF-295 CNS) |
| --- | --- | --- | --- | --- | --- | --- | --- | --- | --- | --- | --- | --- | --- | --- | --- | --- | --- | --- | --- | --- |
| COc1cc(/C=C/C(=O)c2c(-c3ccc(F)cc3)nc3sc(C)nn23)cc(OC)c1OC | 2.09 µM | 4.54 µM | 2.19 µM | 4.9 | 3.61 µM | 85.6 | 1.92 µM | 5.13 | 2.28 µM | 7.06 | 3.31 µM | 10.6 µM | 3.03 µM | 16.5 | 2 µM | 5.95 | 2.55 µM | 5.51 | 4.03 µM | 15.9 µM |
| COC(=O)[C@@H](C)C[C@H](Cc1ccccc1)NC(=O)c1csc([C@@H](C[C@H](C(C)C)N(C)C(=O)[C@@H](NC(=O)[C@H]2CCCN2C)C2CC2)OC(C)=O)n1 | 0.00172 µM and < 0.0025 µM | 0.00659 µM and < 0.0025 µM | 0.0324 µM |  |  | > 25 | 0.000262 µM and 0.0025 µM | 12.2 | 0.00255 µM and 0.0025 µM | > 25 | 0.00479 µM and 0.0025 µM | > 25 µM |  | > 25 | 0.000586 µM and 0.0025 µM | > 25 | 0.000503 µM and 0.0025 µM | > 25 | 0.00302 µM and 0.0025 µM | > 25 µM |
| NCCSC(c1ccccc1)(c1ccccc1)c1ccccc1 | 1.36 µM | 3.21 µM | 1.64 µM | 3.34 | 2.94 µM | 12.9 | 1.11 µM | 4.19 | 2.43 µM | 14.2 | 1.22 µM | 12.1 µM | 0.354 µM | 1.78 | 1.85 µM | 6 | 1.95 µM | 4.23 | 0.967 µM | 2.76 µM |
| CC1Cc2ccccc2N1C(=O)Cc1nc(N2CCOCC2)cc(=O)[nH]1 (stereo unspecified) | 8.79 µM and 22.4 µM | > 100 µM | 5.13 µM and 18.5 µM | > 100 | 28.1 µM and 31.4 µM | > 100 | 22.9 µM and > 58.3 µM | > 100 | 53.8 µM and 59.9 µM | > 100 | 0.639 µM and 3.19 µM | > 100 µM and 98.4 µM | 2.3 µM and 4.77 µM | > 100 | 20.7 µM and 46.7 µM | > 100 | 8.25 µM and 34.5 µM | > 100 | 3.15 µM and 6.95 µM | > 100 µM and 97.7 µM |
| Cc1ccc(OCCOCCOCCOCCOCCOc2ccc(C)n(O)c2=S)c(=S)n1O | 0.0606 µM | 15.1 µM | 0.23 µM | > 48.7 | 0.0339 µM | 49.5 | 0.0713 µM | > 100 | 0.0789 µM | > 84.6 | 0.0952 µM | > 100 µM | 0.0254 µM | > 69.7 | 0.0504 µM | > 100 | 0.0585 µM | > 100 | 0.0378 µM | > 43.6 µM |
| Cn1c(=O)c(Oc2ccc(F)cc2F)cc2cnc(NC3CCOCC3)nc21 | > 25 µM | > 25 µM | > 25 µM | > 25 | > 25 µM | > 25 | > 21.1 µM | > 25 | > 25 µM | > 25 | > 25 µM | > 25 µM | > 25 µM | > 25 | > 25 µM | > 25 | > 25 µM | > 25 | > 25 µM | > 25 µM |
| COc1ccc2nc3cccc([N+](=O)[O-])c3c(NC(C)CN(C)C)c2c1 (stereo unspecified) | 2.66 µM | 6.46 µM | 3.05 µM |  | 2 µM | 4.65 | 1.78 µM | 6 | 1.18 µM | 2.96 | 2.22 µM | 7.12 µM | 1.17 µM | 4.36 | 2.21 µM | 7.62 | 1.63 µM | 6.8 | 2.37 µM | 10.1 µM |
| CC/C=C\C[C@H](O)C/C=C1/C(=O)C=C[C@@H]1C/C=C\CCCCO | 2.03 µM | 4.55 µM | 2.39 µM | 6.87 | 3.55 µM | 18.7 | 2.52 µM | 10.4 | 2.12 µM | 5 | 1.91 µM | 3.77 µM | 0.544 µM | 10.6 | 2.43 µM | 16.5 | 2.4 µM | 5.62 | 2.39 µM | 6.34 µM |
| COc1cc(C2CC(=O)Nc3c2c(C)nn3-c2nc3ccccc3[nH]2)cc(OC)c1O (stereo unspecified) | 3.1 µM | 13.5 µM | 2.4 µM | 6.58 | 2.43 µM | 11.4 | 3.07 µM | 12.5 | 3.72 µM | 17 | 3.01 µM | 9.39 µM | 3.13 µM | > 100 | 1.34 µM | > 100 | 3.66 µM | 16.6 | 1.33 µM | 3.71 µM |
| O=[N+]([O-])c1ccc2c(c1)C(c1ccccc1Cl)=Nc1c(n[nH]c1-c1cccnc1)N2 | > 25 µM | > 25 µM | > 25 µM | > 25 | > 19.8 µM | > 25 | > 25 µM | > 25 | > 25 µM | > 25 | > 25 µM | > 25 µM | > 25 µM | > 25 | > 25 µM | > 25 | > 25 µM | > 25 | > 25 µM | > 25 µM |
| CC(C)Cc1ccc(C(C)C(=O)NCc2ccc(Cn3c(=O)sn(CCCI)c3=O)cc2)cc1 (stereo unspecified) | 0.804 µM | 2.08 µM | 1.2 µM | 2.46 | 0.736 µM | 2.12 | 0.34 µM | 2.2 | 1.53 µM | 3.6 | 0.475 µM | 0.998 µM | 0.397 µM | 2.03 | 0.279 µM | > 100 | 0.238 µM | 0.75 | 1.56 µM | 3.08 µM |
| COC(=O)c1oc2c(C(=O)/C=C/c3ccc(OC)cc3)c(OCCN3CCOCC3)ccc2c1C | 1.64 µM | 4.1 µM | 2.33 µM | 5.19 | 2.48 µM | > 44.2 | 1.57 µM | 4.2 | 2.44 µM | 6.88 | 1.77 µM | 4.1 µM | 0.97 µM | 7.33 | 0.395 µM | 2.53 | 1.94 µM | 4.48 | 1.85 µM | 5.2 µM |
| O=C1CC(N2C(=O)/C(=C/C(Cl)=C\c3ccc([N+](=O)[O-])cc3)SC2=S)C(=O)N1c1ccc(O)cc1 (stereo unspecified) | 1.72 µM | 3.81 µM | 1.95 µM | 4.2 | 5.13 µM | 17.3 | 0.295 µM | 4.36 | 2.26 µM | 6.63 | 1.23 µM | 4.81 µM | 1.21 µM | 10.7 | 0.385 µM | 3.87 | 0.847 µM | 8.78 | 1.31 µM | 2.7 µM |
| NC(N)=Nc1ccc(/C=C2\C=Cc3ccccc32)cc1 | 3.66 µM | 9.66 µM | 4.38 µM | 17.9 | 2.89 µM | 15.1 | 3.18 µM | 14.4 | 2.4 µM | 6.23 | 3.22 µM | 14.8 µM | 0.523 µM | 2.37 | 2.09 µM | 4.9 | 2.05 µM | 4.11 | 7.28 µM | 24.6 µM |
| N#Cc1c(N/N=C\c2ccc(Cl)cc2)nc(N)nc1N1CCOCC1 | 75.1 µM | > 100 µM | > 100 µM | > 100 | 94.4 µM | > 100 | 16.4 µM | 44.3 | 86.6 µM | > 100 | 67.1 µM | > 100 µM | 77.3 µM | > 100 | 25.8 µM | 78.9 | 26.7 µM | > 100 | 33.2 µM | > 100 µM |
| COC(=O)CNc1nc(N(C)O)nc(N(C)O)n1 | 3.48 µM | > 100 µM | 4.53 µM | > 100 | 2.85 µM | > 100 | 1.49 µM | > 100 | 2.12 µM | > 100 | 3.56 µM | 66.8 µM | 3.07 µM | > 100 | 0.697 µM | > 100 | 6.5 µM | > 100 | 2.92 µM | > 100 µM |
| Cc1ccccc1C(C(=O)NC1CCCCC1)N(C(=O)CNc1ccc(C#N)cc1)c1cccc(F)c1 (stereo unspecified) | 16.2 µM | > 59.7 µM | 32.4 µM | > 100 | 9.34 µM | > 71.6 | > 100 µM | > 100 | 3.51 µM | 14.4 | 17.3 µM | > 67.9 µM | 49.8 µM | > 100 | > 100 µM | > 100 | > 100 µM | > 100 | 13.8 µM | 44.6 µM |
